# Conditions: not given
Compound,melting point [°C],boiling point [°C],log10 vapour pressure (mmHg),log10 Koc (L/kg),log10 biodegradation half-life (days),log10 Henry constant (atm·m³/mol),log10 Koa,ready biodegradability
CCCCCCCCCCCCNC(=O)C[N+](C)(C)Cc1ccccc1.[Cl-],148,,,,,,,
CCCCCCCCCCCCCCC(=O)O,52.3,339,-6.36,,,,,
Cc1cc(C)c(C)cc1C,79.3,197,-0.277,3.12,0.845,,,
CCCCCCC(Br)CBr (stereo not given),,241,,,,,,
C=CC(C)(C)O,-28,97,,,,-4.68,,
C(=C\c1ccccc1)/c1ccccc1,,307,-2.61,,,,7.48,
Clc1cc(Cl)c(Cl)cc1Cl,140,244,-2.27,4.1,,-3,5.63,not readily biodegradable
CCC#CCCCCC(=O)O,14,,,,,,,
N#Cc1cccc(Cl)c1,41,,,,,,,
Nc1ccc(-c2ccccc2)cc1,53.5,302,,,,,,
O=[N+]([O-])c1cccc(S(=O)(=O)NCCNS(=O)(=O)c2cccc([N+](=O)[O-])c2)c1,190,,,,,,,
C[Si](C)(C)OS(=O)(=O)C(F)(F)F,,140,,,,,,
ICCI,83,200,,,,,,
CCOC(=O)C(C)(C)O,,150,,,,,,
Cc1ccc2ccc(C)nc2c1,61,264,,,,,,
CCCc1ccc(OC)cc1,,212,,,,,,
CC12CCC(C(Cl)C1=O)C2(C)C (stereo not given),106,,,,,,,
Cc1ccc(Cl)c(O)c1Cl,28,237,,,,,,
Clc1ccccc1C(c1ccccc1)(c1ccccc1)n1ccnc1,148,,,,,,,
CCNc1nc(Cl)nc(NC(C)(C)C)n1,178,,-5.95,2.32,,,,
C[C@]12CC[C@H](O)C[C@H]1CC[C@@H]1[C@@H]2[C@H](O)C[C@]2(C)[C@@H](C3=CC(=O)OC3)CC[C@]12O,280,,,,,,,

Compound,melting point [°C],boiling point [°C],log10 vapour pressure (mmHg),log10 Koc (L/kg),log10 biodegradation half-life (days),log10 Henry constant (atm·m³/mol),log10 Koa,ready biodegradability
COC(=O)c1cc(Cl)ccc1[N+](=O)[O-],48.5,,,,,,,
OCC1c2ccccc2-c2ccccc21,106,,,,,,,
CC(C)CCCCCO,-106,188,,,,,,
Cc1ccc2nc(C)cc(C)c2c1,68,280,,,,,,
O=[N+]([O-])c1cc(C(F)(F)F)c(Cl)c([N+](=O)[O-])c1Nc1ncc(C(F)(F)F)cc1Cl,113,,,,,,,
CCCCCCCCCCCCCCCCOP(=O)(O)OCCCCCCCCCCCCCCCC,74.5,,,,,,,
CCCCC(C)(C)CC,,137,,,,,,
O=C(O)c1cccc(Cl)n1,,,,1.37,,,,not readily biodegradable
CSc1nc2ccccc2s1,44,,,,,,,
CCC=C(C)C=O,,136,,,,,,
Oc1nc(O)nc(O)n1,360,,,,,,,readily biodegradable
CC(C)OC(=O)C1(S(=O)(=O)c2ccc([N+](=O)[O-])cc2)CCC1,65.5,,,,,,,
C=CC(C)(CCC=C(C)C)OC(=O)C(C)C (stereo not given),,229,,,,,,
CCCC(=O)c1cc(O)c(O)cc1O,154,,,,,,,
CCOc1cc(NC(C)=O)ccc1C(=O)OC,148,,,,,,,
O=C(O)C1CCC1,-2,190,,,,,,
CC(C)N(C(=O)CCl)c1ccccc1,77,,-3.64,2.42,,,,
CC(C)C(=NO)C(C)C,34,181,,,,,,
CCCCCCCCCCCCCCCCCCCCCCCC,54,391,-5.39,,2.06,,,readily biodegradable
COP(=S)(OC)SCSc1ccc(Cl)cc1,,,,4.67,,,,
CC(=O)Nc1ccccc1C(=O)O,186,,,,,,,

Compound,melting point [°C],boiling point [°C],log10 vapour pressure (mmHg),log10 Koc (L/kg),log10 biodegradation half-life (days),log10 Henry constant (atm·m³/mol),log10 Koa,ready biodegradability
CC(=C(CCO)SSC(CCO)=C(C)N(C=O)Cc1cnc(C)nc1N)N(C=O)Cc1cnc(C)nc1N,177,,,,,,,
CC(F)(F)CCl,-56.2,55,,,,,,
CCNCCO,,170,,,,,,
COC(=O)C1(S(=O)(=O)c2ccc(Br)cc2)CC1,124,,,,,,,
CCCCCCCCCCCCCCCCCC(=O)OCCC(C)C,25.5,,,,,,,
O=C(NO)c1ccccc1O,168,,,,,,,
CC1(C)O[C@@H]2C[C@H]3[C@@H]4CCC5=CC(=O)C=C[C@]5(C)[C@@]4(F)[C@@H](O)C[C@]3(C)[C@]2(C(=O)CO)O1,293,,,,,,,
CN(C)[C@@H]1C(O)=C(C(N)=O)C(=O)[C@@]2(O)C(O)=C3C(=O)c4c(O)cccc4[C@@](C)(O)[C@H]3C[C@@H]12.Cl,222,,,,,,,
Cc1cccc(C(=O)O)c1,109,,-3.63,,,,,readily biodegradable
COC(=O)c1cc(Oc2ccc(C(F)(F)F)cc2Cl)ccc1[N+](=O)[O-],,,-7.12,,,,,
Clc1cc2c(c(Cl)c1Cl)Oc1c(Cl)c(Cl)c(Cl)c(Cl)c1O2,264,,-10.2,,,,11.4,
OCc1cc(Br)ccc1O,113,,,,,,,
O=C1CCCN1,23,245,-2.02,,,,,
C[C@@H]1Cc2c(Cl)cc(C(=O)N[C@@H](Cc3ccccc3)C(=O)O)c(O)c2C(=O)O1,169,,,,,,,
CCOP(=S)(OCC)SCSc1ccc(Cl)cc1,,,-6.52,4.66,,,,
CCOC(=O)C(O)(c1ccc(Cl)cc1)c1ccc(Cl)cc1,37,,-5.66,3.3,,,,not readily biodegradable
CC(C)CCC(=O)O,-33,200,,,,,,
NS(=O)(=O)c1ccc(Cl)c(S(N)(=O)=O)c1,207,,,,,,,
O=[N+]([O-])c1ccc(Cl)cc1C(F)(F)F,,,,,,,,not readily biodegradable
O=C(Cc1ccccc1)Cc1ccccc1,35,331,-3.13,,,,,
OC[C@@H]1CCCCN1,69,,,,,,,

Compound,melting point [°C],boiling point [°C],log10 vapour pressure (mmHg),log10 Koc (L/kg),log10 biodegradation half-life (days),log10 Henry constant (atm·m³/mol),log10 Koa,ready biodegradability
Cc1cccc(Cl)c1O,,189,,,,,,
COC(=O)[C@H]1[C@H]2C[C@@H]3c4[nH]c5ccccc5c4CCN3C[C@H]2C[C@@H](OC(=O)c2cc(OC)c(OC)c(OC)c2)[C@@H]1OC,230,,,,,,,
O=NN(CCCl)C(=O)NC1CCCCC1,89,,,,,,,
c1csc(-c2ccc(-c3cccs3)s2)c1,93.5,,,,,,,
COc1ccc(OC)c(N)c1,82.5,270,,,,,,
Cc1c([N+](=O)[O-])cc(C(C)C)c(O)c1[N+](=O)[O-],55.5,,,,,,,
Cc1nc(NS(=O)(=O)c2ccc(N)cc2)oc1C,193,,,,,,,
CC1COc2ccccc2N1C(=O)C(Cl)Cl (stereo not given),108,,-5.35,,,,,
CC(C)CCOC(=O)c1ccccc1O,,278,,,,,,readily biodegradable
CCOc1ccc(OCC)cc1,72,246,,,,,,
C[C@H](O)CC[C@H](C)O,43,218,,,,,,
CCCC(CC)CCC,,141,,,,,,
CC(C=O)c1ccccc1 (stereo not given),,204,-0.569,,,,,
FC(F)(F)S(F)(F)(F)(F)F,-87,-20,,,,,,
O=[Se](O)c1ccccc1,124,,,,,,,
COCCOC(C)=O,-70,143,0.301,,,,,readily biodegradable
CCCCCCCCCCCCCCCCC(=O)OC,30,,,,,,,
ClC=CBr,-86.7,84.6,,,,,,

# Same assay, conditions: fish
Compound,log10 BCF,log10 biotransformation half-life (days)
Clc1cc(Cl)c(Cl)cc1Cl,3.44,1.79
Oc1nc(O)nc(O)n1,-0.3,
Brc1cc(Br)c(Oc2c(Br)c(Br)c(Br)c(Br)c2Br)cc1Br,5.93,
Clc1cc2c(c(Cl)c1Cl)Oc1c(Cl)c(Cl)c(Cl)c(Cl)c1O2,3.67,1.21
CCOC(=O)C(O)(c1ccc(Cl)cc1)c1ccc(Cl)cc1,2.68,-0.08
O=[N+]([O-])c1ccc(Cl)cc1C(F)(F)F,1.87,-0.36

# — the OPERA property sets (Mansouri et al. 2018)
